Earlier results on 1 compound are cited in patent publication US20220193200A1, “TANNIC ACID/FE (III) NANOPARTICLES AND METHODS OF DRUG DELIVERY” (The Johns Hopkins University, priority 2019, published 2022).

The structures appear in SMILES notation.

Regarding `O=C(OC[C@H]1O[C@@H](OC(=O)c2cc(O)c(O)c(OC(=O)c3cc(O)c(O)c(O)c3)c2)[C@H](OC(=O)c2cc(O)c(O)c(OC(=O)c3cc(O)c(O)c(O)c3)c2)[C@@H](OC(=O)c2cc(O)c(O)c(OC(=O)c3cc(O)c(O)c(O)c3)c2)[C@@H]1OC(=O)c1cc(O)c(O)c(OC(=O)c2cc(O)c(O)c(O)c2)c1)c1cc(O)c(O)c(OC(=O)c2cc(O)c(O)c(O)c2)c1` [tannic acid, Tannic acid], the pKa result is on record as “around 6”.
